Patent US20230203098A1, “HUMAN TRANSFERRIN RECEPTOR BINDING PEPTIDE” (priority 2020, published 2023)
Read-outs that look alike come from different tables or passages of the source. Where a SMILES comes first, the peptide text is derived from it. Bridges are numbered along the chain shown (N, C = ends). [ ]: non-standard residue; d: D form. The star is where a group is joined. Phe(3-COOH) = N[C@@H](Cc1cccc(C(=O)O)c1)C(=O)O; NH(CH2CH2O)8Me = COCCOCCOCCOCCOCCOCCOCCOCCN*; NMePhe(3-Cl) = CN[C@@H](Cc1cccc(Cl)c1)C(=O)O; NMeW = CN[C@@H](Cc1c[nH]c2ccccc12)C(=O)O; NMeY = CN[C@@H](Cc1ccc(O)cc1)C(=O)O; Ahp(2) = CCCCC[C@H](N)C(=O)O; PEG4 = NCCOCCOCCOCCOCCC(=O)O; hLys = NCCCCC[C@H](N)C(=O)O; dOrn = NCCC[C@@H](N)C(=O)O; Dab = NCC[C@H](N)C(=O)O

Target: transferrin receptor (hTfR) (Homo sapiens, UniProt P02786)
Sequence (P02786 whole entry): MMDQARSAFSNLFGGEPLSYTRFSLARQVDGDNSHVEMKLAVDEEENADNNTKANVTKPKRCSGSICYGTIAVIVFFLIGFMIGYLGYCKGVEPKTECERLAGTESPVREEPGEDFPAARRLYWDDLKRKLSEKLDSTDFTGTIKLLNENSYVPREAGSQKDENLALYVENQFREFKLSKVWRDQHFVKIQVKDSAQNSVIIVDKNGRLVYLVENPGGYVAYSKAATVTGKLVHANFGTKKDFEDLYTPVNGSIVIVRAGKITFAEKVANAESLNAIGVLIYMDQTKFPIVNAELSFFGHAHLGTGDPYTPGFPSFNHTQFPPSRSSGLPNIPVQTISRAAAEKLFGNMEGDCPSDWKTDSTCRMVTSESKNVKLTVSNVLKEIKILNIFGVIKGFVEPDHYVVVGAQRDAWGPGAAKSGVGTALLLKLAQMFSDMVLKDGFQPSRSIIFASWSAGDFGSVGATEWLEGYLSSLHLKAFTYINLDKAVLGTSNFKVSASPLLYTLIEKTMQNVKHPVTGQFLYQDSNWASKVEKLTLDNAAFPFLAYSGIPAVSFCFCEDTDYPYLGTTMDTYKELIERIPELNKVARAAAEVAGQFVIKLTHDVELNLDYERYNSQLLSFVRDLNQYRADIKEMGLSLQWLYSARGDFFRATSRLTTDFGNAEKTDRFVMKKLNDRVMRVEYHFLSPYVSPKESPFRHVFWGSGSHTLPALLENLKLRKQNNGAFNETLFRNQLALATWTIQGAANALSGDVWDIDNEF
Assay: Intermolecular interaction evaluation test between transferrin receptor (hTfR) and peptide by surface plasmon resonance (SPR)
Assay type: binding
How it was run: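 Receptor was Ni-captured and EDC/NHS-fixed on an NTA chip; running buffer HEPES pH 8.0 with NaCl, Tween 20, BSA and 1.0% DMSO.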

[1] = surface plasmon resonance, peptide vs hTfR, read-out: KD value, hTfR binding by SPR (class symbol)
[2] = surface plasmon resonance, hTfR, read-out: KD value for hTfR by SPR (class symbol)
[3] = binding to hTfR by SPR, Table 2 peptides, read-out: KD value (SPR) class

Row | Structure (SMILES) | Kd [2] | further results
1 | CC[C@H](C)[C@@H]1NC(=O)[C@H](Cc2ccc(OCCN)cc2)NC(=O)[C@H](Cc2ccc(O)cc2)NC(=O)[C@H](CC(N)=O)NC(=O)[C@H](Cc2c[nH]c3ccccc23)N(C)C(=O)[C@H](C(C)C)NC(=O)[C@H](Cc2cccc(Cl)c2)N(C)C(=O)[C@H](C(C)C)NC(=O)[C@H](C)NC(=O)CSC[C@@H](C(N)=O)NC(=O)[C@H](Cc2ccc(O)cc2)N(C)C(=O)[C@H](Cc2ccccc2)NC(=O)[C@@H](CCCNC(=N)N)NC(=O)[C@H](CCCNC(=N)N)NC(=O)[C@H]([C@@H](C)CC)NC1=O [compound 321] |  | Kd [1]: 1 to 100 nM
2 | CC[C@H](C)[C@@H]1NC(=O)[C@H](Cc2ccc(OC)cc2)NC(=O)[C@H](Cc2ccc(O)cc2)NC(=O)[C@H](CC(N)=O)NC(=O)[C@H](Cc2c[nH]c3ccccc23)N(C)C(=O)[C@H](C(C)C)NC(=O)[C@H](Cc2cccc(Cl)c2)N(C)C(=O)[C@H](C(C)C)NC(=O)[C@H](C)NC(=O)CSC[C@@H](C(=O)NCCOCCOCCOCCOCCC(N)=O)NC(=O)[C@H](Cc2ccc(O)cc2)N(C)C(=O)[C@H](Cc2ccccc2)NC(=O)[C@@H](CCCNC(=N)N)NC(=O)[C@H](CCN)NC(=O)[C@H]([C@@H](C)CC)NC1=O [compound 366] ({CH2CO}-AV[NMePhe(3-Cl)]V[NMeW]NYY(Me)II[Dab][dR]F[NMeY]C[PEG4]-NH2; thioether N-15) | 1 to 100 nM | 
3 | CC[C@H](C)[C@@H]1NC(=O)[C@H](Cc2ccc(O)cc2)NC(=O)[C@H](Cc2ccc(O)cc2)NC(=O)[C@H](CC(N)=O)NC(=O)[C@H](Cc2c[nH]c3ccccc23)N(C)C(=O)[C@H](C(C)C)NC(=O)[C@H](Cc2ccccc2)NC(=O)[C@H](C(C)C)NC(=O)[C@H](C)NC(=O)CSC[C@@H](C(N)=O)NC(=O)[C@H](Cc2ccc(O)cc2)N(C)C(=O)[C@H](Cc2ccc(O)cc2)NC(=O)[C@H](CCCNC(=N)N)NC(=O)[C@H](CCCNC(=N)N)NC(=O)[C@H]([C@@H](C)CC)NC1=O [compound 263] |  | Kd [3]: < 1 nM
4 | CC[C@H](C)[C@@H]1NC(=O)[C@H](Cc2cccc(C(=O)O)c2)NC(=O)[C@H](Cc2ccc(O)cc2)NC(=O)[C@H](CC(N)=O)NC(=O)[C@H](Cc2c[nH]c3ccccc23)N(C)C(=O)[C@H](C(C)C)NC(=O)[C@H](Cc2cccc(Cl)c2)N(C)C(=O)[C@H](C(C)C)NC(=O)[C@H](C)NC(=O)CSC[C@@H](C(N)=O)NC(=O)[C@H](Cc2ccc(O)cc2)N(C)C(=O)[C@H](Cc2ccccc2)NC(=O)[C@@H](CCCNC(=N)N)NC(=O)[C@H](CCCNC(=N)N)NC(=O)[C@H]([C@@H](C)CC)NC1=O [compound 458] ({CH2CO}-AV[NMePhe(3-Cl)]V[NMeW]NY[Phe(3-COOH)]IIR[dR]F[NMeY]C-NH2; thioether N-15) |  | Kd (SPR, hTfR, class symbols A-D, read-out: KD): 1 to 100 nM
5 | CCCCC[C@@H]1NC(=O)[C@H]([C@@H](C)CC)NC(=O)[C@H]([C@@H](C)CC)NC(=O)[C@H](Cc2ccc(OC)cc2)NC(=O)[C@H](Cc2ccc(O)cc2)NC(=O)[C@H](CC(N)=O)NC(=O)[C@H](Cc2c[nH]c3ccccc23)N(C)C(=O)[C@H](C(C)C)NC(=O)[C@H](Cc2cccc(Cl)c2)N(C)C(=O)[C@H](C(C)C)NC(=O)[C@H](C)NC(=O)CSC[C@@H](C(=O)NCCOCCOCCOCCOCCC(N)=O)NC(=O)[C@H](Cc2ccc(O)cc2)N(C)C(=O)[C@H](Cc2ccccc2)NC(=O)[C@@H](CCCNC(=N)N)NC1=O [compound 362] ({CH2CO}-AV[NMePhe(3-Cl)]V[NMeW]NYY(Me)II[Ahp(2)][dR]F[NMeY]C[PEG4]-NH2; thioether N-15) | 1 to 100 nM | 
6 | CC[C@H](C)[C@@H]1NC(=O)[C@H](Cc2ccc(OC)cc2)NC(=O)[C@H](Cc2ccc(O)cc2)NC(=O)[C@H](CC(N)=O)NC(=O)[C@H](Cc2c[nH]c3ccccc23)N(C)C(=O)[C@H](C(C)C)NC(=O)[C@H](Cc2cccc(Cl)c2)N(C)C(=O)[C@H](C(C)C)NC(=O)[C@H](C)NC(=O)CSC[C@@H](C(N)=O)NC(=O)[C@H](Cc2ccc(O)cc2)N(C)C(=O)[C@H](Cc2ccccc2)NC(=O)[C@@H](CCCNC(=N)N)NC(=O)[C@H](CCCNC(=N)N)NC(=O)[C@H](CCC(=O)NCCOCCOCCOCCOCCOCCOCCOCCOC)NC1=O [compound 345] ({CH2CO}-AV[NMePhe(3-Cl)]V[NMeW]NYY(Me)IE(NH(CH2CH2O)8Me)R[dR]F[NMeY]C-NH2; thioether N-15) |  | Kd [1]: 1 to 100 nM
7 | CC[C@H](C)[C@@H]1NC(=O)[C@H](Cc2ccc(O)cc2)NC(=O)[C@H](Cc2ccc(O)cc2)NC(=O)[C@H](CC(N)=O)NC(=O)[C@H](Cc2cccc(F)c2)NC(=O)[C@H](C(C)C)NC(=O)[C@H](Cc2ccccc2)N(C)C(=O)[C@H](C(C)C)NC(=O)[C@H](C)NC(=O)CSC[C@@H](C(=O)NCCOCCOCCOCCOCCOCCOCCOCCOCCOCCOCCOCCOCCC(N)=O)NC(=O)[C@H](Cc2ccc(O)cc2)N(C)C(=O)[C@H](Cc2ccc(O)cc2)NC(=O)[C@H](CCCNC(=N)N)NC(=O)[C@H](CCCNC(=N)N)NC(=O)[C@H]([C@@H](C)CC)NC1=O [compound 122] |  | Kd (SPR, hTfR No. 894 variants with PEG12c linker (Table 2), read-out: KD): 1 to 100 nM
8 | CC[C@H](C)[C@@H]1NC(=O)[C@H](Cc2ccc(OC)cc2)NC(=O)[C@H](Cc2ccc(O)cc2)NC(=O)[C@H](CC(N)=O)NC(=O)[C@H](Cc2c[nH]c3ccccc23)N(C)C(=O)[C@H](C(C)C)NC(=O)[C@H](Cc2cccc(Cl)c2)N(C)C(=O)[C@H](C(C)C)NC(=O)[C@H](C)N(C)C(=O)CSC[C@@H](C(N)=O)NC(=O)[C@H](Cc2ccc(O)cc2)N(C)C(=O)[C@H](Cc2ccccc2)NC(=O)[C@@H](CCCNC(=N)N)NC(=O)[C@H](CCCNC(=N)N)NC(=O)[C@H]([C@@H](C)CC)NC1=O [compound 215] |  | Kd (SPR, peptides, linker-added peptides and FITC conjugates, Patent ID 203-230, read-out: KD): 1 to 100 nM
9 | CC[C@H](C)[C@@H]1NC(=O)[C@H](Cc2ccc(OC)cc2)NC(=O)[C@H](Cc2ccc(O)cc2)NC(=O)[C@H](CC(N)=O)NC(=O)[C@H](Cc2c[nH]c3ccccc23)N(C)C(=O)[C@H](C(C)C)NC(=O)[C@H](Cc2cccc(Cl)c2)N(C)C(=O)[C@H](CCCCNC(=N)N)NC(=O)[C@H](C)NC(=O)CSC[C@@H](C(N)=O)NC(=O)[C@H](Cc2ccc(O)cc2)N(C)C(=O)[C@H](Cc2ccccc2)NC(=O)[C@@H](CCCNC(=N)N)NC(=O)[C@H](CCCNC(=N)N)NC(=O)[C@H]([C@@H](C)CC)NC1=O [compound 242] |  | Kd [3]: 1 to 100 nM

More lines, main results first:

Row | Kd [2] | Structure (SMILES) | further results
10 | 1 to 100 nM | CC[C@H](C)[C@@H]1NC(=O)[C@H](Cc2ccc(OC)cc2)NC(=O)[C@H](Cc2ccc(O)cc2)NC(=O)[C@H](CC(N)=O)NC(=O)[C@H](Cc2c[nH]c3ccccc23)N(C)C(=O)[C@H](C(C)C)NC(=O)[C@H](Cc2cccc(Cl)c2)N(C)C(=O)[C@H](C(C)C)NC(=O)[C@H](C)NC(=O)CSC[C@@H](C(N)=O)NC(=O)[C@H](Cc2ccc(O)cc2)N(C)C(=O)[C@H](Cc2ccccc2)NC(=O)[C@H](CCCNC(=N)N)NC(=O)[C@H](CCCNC(=N)N)N(C)C(=O)[C@H]([C@@H](C)CC)NC1=O [compound 381] | 
11 | 1 to 100 nM | CC[C@H](C)[C@@H]1NC(=O)[C@H](Cc2ccc(OC)cc2)NC(=O)[C@H](Cc2ccc(O)cc2)NC(=O)[C@H](CC(N)=O)NC(=O)[C@H](Cc2c[nH]c3ccccc23)N(C)C(=O)[C@H](C(C)C)NC(=O)[C@H](Cc2cccc(Cl)c2)N(C)C(=O)[C@H](C(C)C)NC(=O)[C@H](C)NC(=O)CSC[C@@H](C(N)=O)NC(=O)[C@H](Cc2ccc(O)cc2)N(C)C(=O)[C@H](Cc2ccccc2)NC(=O)[C@H](CCCNC(=N)N)NC(=O)[C@H](CCCNC(=N)N)NC(=O)[C@H]([C@@H](C)CC)NC1=O [compound 386] | 
12 | 1 to 100 nM | CC[C@H](C)[C@@H]1NC(=O)[C@H](Cc2ccc(OC)cc2)NC(=O)[C@H](Cc2ccc(O)cc2)NC(=O)[C@H](CC(N)=O)NC(=O)[C@H](Cc2c[nH]c3ccccc23)N(C)C(=O)[C@H](C(C)C)NC(=O)[C@H](Cc2cccc(Cl)c2)N(C)C(=O)[C@H](C(C)C)NC(=O)[C@H](C)NC(=O)CSC[C@@H](C(N)=O)NC(=O)[C@H](Cc2ccc(O)cc2)N(C)C(=O)[C@H](Cc2ccccc2)NC(=O)[C@@H](CCCNC(=N)N)NC(=O)[C@H](CCCCN)NC(=O)[C@H]([C@@H](C)CC)NC1=O [compound 373] | 
13 | 1 to 100 nM | CC[C@H](C)[C@@H]1NC(=O)[C@H](Cc2ccc(OC)cc2)NC(=O)[C@H](Cc2ccc(O)cc2)NC(=O)[C@H](CC(N)=O)NC(=O)[C@H](Cc2c[nH]c3ccccc23)N(C)C(=O)[C@H](C(C)C)NC(=O)[C@H](Cc2cccc(Cl)c2)N(C)C(=O)[C@H](C(C)C)NC(=O)[C@H](C)NC(=O)CSC[C@@H](C(=O)NCCOCCOCCOCCOCCC(N)=O)NC(=O)[C@H](Cc2ccc(O)cc2)N(C)C(=O)[C@H](Cc2ccccc2)NC(=O)[C@@H](CCCNC(=N)N)NC(=O)[C@@H](CCCN)NC(=O)[C@H]([C@@H](C)CC)NC1=O [compound 368] ({CH2CO}-AV[NMePhe(3-Cl)]V[NMeW]NYY(Me)II[dOrn][dR]F[NMeY]C[PEG4]-NH2; thioether N-15) | 
14 | 1 to 100 nM | CC[C@H](C)[C@@H]1NC(=O)[C@H](Cc2ccc(OC)cc2)NC(=O)[C@H](Cc2ccc(O)cc2)NC(=O)[C@H](CC(N)=O)NC(=O)[C@H](Cc2c[nH]c3ccccc23)N(C)C(=O)[C@H](C(C)C)NC(=O)[C@H](Cc2cccc(Cl)c2)N(C)C(=O)[C@H](C(C)C)NC(=O)[C@H](C)NC(=O)CSC[C@@H](C(N)=O)NC(=O)[C@H](Cc2ccc(O)cc2)N(C)C(=O)[C@H](Cc2ccccc2)NC(=O)[C@@H](CCCNC(=N)N)NC(=O)[C@H](CCCNC(=N)N)N(C)C(=O)[C@H]([C@@H](C)CC)NC1=O [compound 382] | 
15 | 1 to 100 nM | CC[C@H](C)[C@@H]1NC(=O)[C@H](Cc2ccc(OC)cc2)NC(=O)[C@H](Cc2ccc(O)cc2)NC(=O)[C@H](CC(N)=O)NC(=O)[C@H](Cc2c[nH]c3ccccc23)N(C)C(=O)[C@H](C(C)C)NC(=O)[C@H](Cc2cccc(Cl)c2)N(C)C(=O)[C@H](C(C)C)NC(=O)[C@H](C)NC(=O)CSC[C@@H](C(=O)NCCOCCOCCOCCOCCC(N)=O)NC(=O)[C@H](Cc2ccc(O)cc2)N(C)C(=O)[C@H](Cc2ccccc2)NC(=O)[C@@H](CCCNC(=N)N)NC(=O)[C@H](CCCCCN)NC(=O)[C@H]([C@@H](C)CC)NC1=O [compound 369] ({CH2CO}-AV[NMePhe(3-Cl)]V[NMeW]NYY(Me)II[hLys][dR]F[NMeY]C[PEG4]-NH2; thioether N-15) | 
